Patent US20030206858A1, “Metal complex-containing pharmaceutical agents” (Schering AG, priority 1986, published 2003)

Assay: 153Gd remaining in the rat 7 days after i.v. injection of GdDTPA/dimeglumine
Format: in vivo
Settings: rats, one week after i.v. injection of GdDTPA; 10% calcium trisodium DTPA added to the contrast medium, versus no additive

In the case of O=C([O-])CN(CCN(CC(=O)[O-])CC(=O)[O-])CCN(CC(=O)[O-])CC(=O)[O-].[Ca+2].[Na+].[Na+].[Na+] [calcium trisodium DTPA, Calcium-trisodium salt of DTPA], the “reduction of the gadolinium concentration in the bones” value was “about 45%” and the “reduction of the portion of gadolinium remaining in the bodies” value was “greater than 30%”.
